How the values were obtained:
Assay type in all cases: biochemical, Acidicaldus organivorans USBA-GBX-499
modified esterase 499EST [1] = test: Effect of organic solvents on the modified esterase; details: for % actividad relativa: pNPC8, 55° C., pH 9.0; for esterase activity increased to: solvent at a concentration of 15% and 30%
Experimental: (§1) The activity of the modified enzyme was determined spectrophotometrically at 405 nm in a range of temperatures between 45 and 75° C., using p-nitro phenyl of other chains C6 to C10 (Sigma-Aldrich) as substrate. One unit of esterase activity was defined as the capacity of the enzyme to release 1 μmol min^−1 of p-nitrophenol under the essay conditions. The molar absorbance coefficient was of 16.900 M^−1 cm^−1. The mixture consisted of 448 μl of the Tris-HCl 50 mM buffer at 9.0 pH that contained 50 μl of p-nitrophenyl diluted in isopropanol and 2 μl of the solution stock of the protein. All the assays were made by triplicate and the average was calculated.
(§2) The evaluation of metallic, solvent and detergent ions and inhibitors of the modified enzyme was carried out incubating the enzyme in the presence of each of them for one hour at 30° C. The evaluation established the stability of the referenced enzyme at a control for which the enzyme was in absence of the additive. The result was expressed in percentage of residual activity, being 100% the control.
Effect of organic solvents. The activity of the enzyme was evaluated in presence of different organic solvents. Two concentrations were evaluated, 15 and 30% of 1 butanol, 2 butanol, acetonitrile, acetone, 1-propanol, 2-propanol, methanol, ethanol, glycerol, dimethyl sulfoxide (DMSO), dimethyl formamide (DMF) (Table 3)

499EST = test: Effect of inhibitors on the modified enzyme 499EST; details: inhibitor 5 mM; one hour at 30° C.
Experimental: as §1, §2
(§3) The effect of the detergents, sodium dodecyl sulfate (SDS), Tween 20, Tween 80, Triton X-100, were evaluated at concentrations of 1 and 5% (v/v) (Table 2). In the evaluations it was determined the effect of inhibitors such phenylmethanesulfonyl fluoride-PMSF, ethylenediaminetetraacetic acid, EDTA, 2-mercaptoethanol (2-ME), dithiothreitol (DTT), the evaluated concentration was of 5 mM.

modified esterase 499EST [2] = test: Effect of metallic ions on the activity of the modified esterase 499EST; details: for Actividad relativa (%): pNPC8, 55° C., pH 9.0, control without additives = 100%
Experimental: as §1, §2
It was evaluated the effect of metallic ions on the enzyme activity. The ions evaluated were: CaCl2, FeCl3, MgCl2, CoCl2, NiCl2, ZnCl2, CuCl2 and MnCl2, the concentrations used were 1 mM and 10 mM. The effect of the ions Fe^3+ was evaluated at concentrations of 0.2 mM-10 mM, and its influence on the thermo stability between 50 and 65° C. (Table 1).

modified esterase 499EST [3] = test: Effect of detergents on the modified esterase 499EST; details: for % actividad relativa: pNPC8, 55° C., pH 9.0, control without additives = 100%
Experimental: as §1, §2, §3

1-butanol
% actividad relativa (modified esterase 499EST [1]; organic solvent 15%): 1.5%
% actividad relativa (modified esterase 499EST [1]; organic solvent 30%): 0.0%

O[C@H](CS)[C@H](O)CS (racemic) [DTT, dithiothreitol]
inhibition of the enzymatic activity (499EST): totally inhibits

CCCO [1-propanol]
% actividad relativa (modified esterase 499EST [1]; organic solvent 15%): 26.8%
% actividad relativa (modified esterase 499EST [1]; organic solvent 30%): 24.81%

CCC(C)O (centres unmarked) [2-butanol]
% actividad relativa (modified esterase 499EST [1]; organic solvent 15%): 16.3%
% actividad relativa (modified esterase 499EST [1]; organic solvent 30%): 14.7%

CC(C)O [2-propanol]
% actividad relativa (modified esterase 499EST [1]; organic solvent 15%): 80.0%
% actividad relativa (modified esterase 499EST [1]; organic solvent 30%): 31.3%

CC(C)=O [Acetona, acetone]
% actividad relativa (modified esterase 499EST [1]; organic solvent 15%): 72.0%
% actividad relativa (modified esterase 499EST [1]; organic solvent 30%): 9.7%

CC#N [Acetonitrilo, acetonitrile]
% actividad relativa (modified esterase 499EST [1]; organic solvent 15%): 17.0%
% actividad relativa (modified esterase 499EST [1]; organic solvent 30%): 0.0%

[Ca+2].[Cl-].[Cl-] [Ca^2+, CaCl2]
Actividad relativa (%) (modified esterase 499EST [2]; ion 1 mM): 9%
Actividad relativa (%) (modified esterase 499EST [2]; ion 10 mM): 7%
Actividad relativa (%) (modified esterase 499EST [2]; ion 10 mM, listed as Ca^+2): highest enzyme inhibition

[Cl-].[Cl-].[Co+2] [Co^2+, CoCl2]
Actividad relativa (%) (modified esterase 499EST [2]; ion 1 mM): 74%
Actividad relativa (%) (modified esterase 499EST [2]; ion 10 mM): 23%
Actividad relativa (%) (modified esterase 499EST [2]; ion 10 mM, listed as Co^+2): highest enzyme inhibition

[Cl][Cu][Cl] [Cu^2+, CuCl2]
Actividad relativa (%) (modified esterase 499EST [2]; ion 1 mM): 16%
Actividad relativa (%) (modified esterase 499EST [2]; ion 10 mM): 0%
Actividad relativa (%) (modified esterase 499EST [2]; ion 10 mM, listed as Cu^+2): highest enzyme inhibition

CN(C)C=O [DMF, dimethyl formamide]
% actividad relativa (modified esterase 499EST [1]; organic solvent 15%): 12.4%
% actividad relativa (modified esterase 499EST [1]; organic solvent 30%): 12.4%

C[S+](C)[O-] [DMSO, dimethyl sulfoxide]
% actividad relativa (modified esterase 499EST [1]; organic solvent 15%): 180.0%
% actividad relativa (modified esterase 499EST [1]; organic solvent 30%): 200.2%
esterase activity increased to (modified esterase 499EST [1]): 200%

O=C(O)CN(CCN(CC(=O)O)CC(=O)O)CC(=O)O [EDTA, ethylenediaminetetraacetic acid]
decrease in the relative enzymatic activity (499EST): 9%

CCO [Etanol, ethanol]
% actividad relativa (modified esterase 499EST [1]; organic solvent 15%): 22%
% actividad relativa (modified esterase 499EST [1]; organic solvent 30%): 12.9%

[Cl][Fe]([Cl])[Cl] [Fe^3+, FeCl3]
Actividad relativa (%) (modified esterase 499EST [2]; ion 1 mM): 111%
Actividad relativa (%) (modified esterase 499EST [2]; ion 10 mM): 342%
increase of the specific activity of the enzyme (modified esterase 499EST [2]; ion concentration from 2 to 10 mM): up to 3 times

OCC(O)CO [Glicerol, glycerol]
% actividad relativa (modified esterase 499EST [1]; organic solvent 15%): 234.8%
% actividad relativa (modified esterase 499EST [1]; organic solvent 30%): 250.3%
esterase activity increased to (modified esterase 499EST [1]): 250%

CO [Metanol, methanol]
% actividad relativa (modified esterase 499EST [1]; organic solvent 15%): 3.0%
% actividad relativa (modified esterase 499EST [1]; organic solvent 30%): 0.0%

[Cl-].[Cl-].[Mg+2] [Mg^2+, MgCl2]
Actividad relativa (%) (modified esterase 499EST [2]; ion 1 mM): 76%
Actividad relativa (%) (modified esterase 499EST [2]; ion 10 mM): 3%
Actividad relativa (%) (modified esterase 499EST [2]; ion 10 mM, listed as Mg^+2): highest enzyme inhibition

[Cl][Mn][Cl] [Mn^2+, MnCl2]
Actividad relativa (%) (modified esterase 499EST [2]; ion 1 mM): 252%
Actividad relativa (%) (modified esterase 499EST [2]; ion 10 mM): 127%

O=S(=O)(F)Cc1ccccc1 [PMSF, phenylmethanesulfonyl fluoride]
activity detected (499EST): 80%

CCCCCCCCCCCCOS(=O)(=O)[O-].[Na+] [SDS, sodium dodecyl sulfate]
effect of detergent on lipolytic activity (modified esterase 499EST [3]; 1 and 5% (v/v)): strongly inhibits
% actividad relativa (modified esterase 499EST [3]; detergent 1%): 8%
% actividad relativa (modified esterase 499EST [3]; detergent 5%): 6%

CCCCCCCC/C=C\CCCCCCCC(=O)OCCOCC(OCCO)C1OCC(OCCO)C1OCCO (centres unmarked) [Tween 80]
% actividad relativa (modified esterase 499EST [3]; detergent 1%): 85%
% actividad relativa (modified esterase 499EST [3]; detergent 5%): 32%

[Cl-].[Cl-].[Zn+2] [Zn^2+, ZnCl2]
Actividad relativa (%) (modified esterase 499EST [2]; ion 1 mM): 190%
Actividad relativa (%) (modified esterase 499EST [2]; ion 10 mM): 21%
Actividad relativa (%) (modified esterase 499EST [2]; ion 10 mM, listed as Zn^+2): highest enzyme inhibition

OCCS [β-mercaptoethanol, 2-mercaptoethanol]
decrease in the relative enzymatic activity (499EST): 12%

Reference: US10400224B2, “Enantioselective modified esterase enzyme and method for the production thereof” (CORPORACIÓN CORPOGEN, priority 2014, dated 2019)
